Measurements: PubChem BioAssay (NCI)
Where “and” joins values, the source holds several entries; their conditions need not be identical. Equal values may be shown once.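 Growth conditions: 96-well plates. Treatment: test compound, 48 hours, 5 concentrations. Analysis: linear interpolation between bracketing concentrations; unreached endpoints set to highest concentration. Here, GI50 denotes the concentration required for 50% inhibition of growth. TGI: concentration producing complete growth inhibition.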

Experiments:
Test in all cases: NCI tumour cell line growth inhibition, 48 h
NCI-H522 lung = tested on: NCI-H522 lung
CAKI-1 renal = tested on: CAKI-1 renal
SF-268 CNS = tested on: SF-268 CNS
HCT-15 colon = tested on: HCT-15 colon
HCT-116 colon = tested on: HCT-116 colon
MCF7 breast = tested on: MCF7 breast
HL-60(TB) leukemia = tested on: HL-60(TB) leukemia
RXF 393 renal = tested on: RXF 393 renal
MDA-MB-435 = tested on: MDA-MB-435
MDA-MB-231 breast = tested on: MDA-MB-231 breast

SMILES	TGI (NCI-H522 lung) [µM]	TGI (CAKI-1 renal)	TGI (SF-268 CNS) [µM]	TGI (HCT-15 colon) [µM]	TGI (HCT-116 colon) [µM]	TGI (MCF7 breast) [µM]	TGI (HL-60(TB) leukemia) [µM]	TGI (RXF 393 renal) [µM]	TGI (MDA-MB-435) [µM]	TGI (MDA-MB-231 breast)	GI50 (MDA-MB-435) [µM]	GI50 (NCI-H522 lung) [µM]	GI50 (CAKI-1 renal) [µM]	GI50 (SF-268 CNS) [µM]	GI50 (HCT-15 colon) [µM]	GI50 (HCT-116 colon) [µM]	GI50 (MCF7 breast) [µM]	GI50 (HL-60(TB) leukemia) [µM]	GI50 (RXF 393 renal) [µM]	GI50 (MDA-MB-231 breast) [µM]
COC(=O)[C@]1(c2ccc(N(C)C)cc2OC)C[C@@H]2CCCN(CCc3c1[nH]c1ccccc31)C2	21.8	> 100 µM	71.2	46.6	55.5	30.7	27.3	37.9	–	–	–	–	–	–	–	–	–	–	–	–
CCCOP(=O)(OCCC)OC(C(F)(F)F)C(F)(F)F	> 100	–	–	> 100	> 100	> 100	> 100	> 100	> 100	> 100 µM	–	–	–	–	–	–	–	–	–	–
COC(=O)CNC(=O)CCC(C)[C@H]1CCC2C3C(C[C@H](OC(C)=O)[C@@]21C)[C@@]1(C)CCC2(C[C@H]1C[C@H]3OC(C)=O)OOC1(CC[C@]3(C)C4C[C@H](OC(C)=O)[C@@]5(C)C(CC[C@@H]5C(C)CCC(=O)NCC(=O)OC)C4[C@H](OC(C)=O)C[C@@H]3C1)OO2 (stereo partly specified)	3.19	6.96 µM	16.1	5.42	9.1	> 50	2.37	–	> 50	5.96 µM	–	–	–	–	–	–	–	–	–	–
COc1cc2cc(C(=O)N3CC(CCl)c4ccc(N(C)C)cc43)[nH]c2c(OC)c1OC (stereo unspecified)	0.0349	1.28 µM	3.81	> 59.9	–	0.604	0.292	0.0761	0.336	0.627 µM	–	–	–	–	–	–	–	–	–	–
CN1Cc2cc(O)c(O)cc2C(O)C1 (stereo unspecified)	> 100	> 100 µM	> 100	–	> 100	> 100	> 100	> 100	> 100	> 100 µM	–	–	–	–	–	–	–	–	–	–
CCOc1ccc(C(C)c2cc3c(cc2OC)OCO3)cc1 (stereo unspecified)	0.166	> 100 µM	45.5	> 100	4.82	–	–	0.539	–	–	–	–	–	–	–	–	–	–	–	–
CC(C)C(=O)/C=C/S/C=C/C(=O)C(C)C	3.62	10.7 µM	> 100	12.2	–	> 100	–	19.4	30.1	15.9 µM	–	–	–	–	–	–	–	–	–	–
CC(C(=O)c1ccncc1)c1ccccn1 (stereo unspecified)	> 100	> 100 µM	> 100	> 100	> 100	> 100	> 100	> 100	> 100	> 100 µM	–	–	–	–	–	–	–	–	–	–
S=c1nc(N/N=C/c2cccs2)c2cn[nH]c2[nH]1	76.8	42.9 µM	> 100	64.1	> 100	28.3	> 100	> 100	51.9	> 100 µM	–	–	–	–	–	–	–	–	–	–
O=P(Nc1ccccc1)(Oc1ccccc1)N(CCCl)CCCl (stereo unspecified)	28.8	> 100 µM	> 100	> 100	> 100	–	> 100	–	–	–	–	–	–	–	–	–	–	–	–	–
Cc1ccc(N=Nc2c(O)ccc3cc(S(=O)(=O)O)ccc23)cc1	> 100	> 100 µM and 80.8 µM	> 100	> 100	> 100	> 100	> 100	> 100	> 100	> 100 µM and 45.7 µM	–	–	–	–	–	–	–	–	–	–
Cc1cc(OCCOCCC(F)(F)P(=O)(O)O)ccc1CCc1cnc2c(N)nc3cc(CCC(=O)O)ccc3c2c1	> 100	> 100 µM	> 100	> 100	> 100	> 100	> 100	> 100	> 100	> 100 µM	> 100	> 100	72.7	> 100	> 100	> 100	> 100	> 100	> 100	> 100
CCCCCCCCCCCCCC[n+]1ccc(C(N)=O)cc1	4.68	15 µM	–	49.6	–	–	–	–	4.64	4.6 µM	1.87	1.61	3.04	–	7.19	–	–	–	–	1.85
COc1cc2c(cc1Oc1c(Oc3c(O)c(OC)cc4c3C(CC(C)C)N(C)CC4)c(OC)cc3c1C(CC(C)C)N(C)CC3)C(CC(C)C)N(C)CC2 (stereo unspecified)	3.58	4.5 µM	8.85	12.9	3.85	8.3	8.16	3.28	–	–	–	–	–	–	–	–	–	–	–	–
C=CC(C)C1(CCCOCc2ccccc2)C(=S)N2CCC3(CC24CCCC14)OCCO3 (stereo unspecified)	64.4	> 100 µM	> 100	> 100	–	–	5.2	> 100	–	–	–	–	–	–	–	–	–	–	–	–
CNC(=O)SCC(NC(=O)CCC(N)C(=O)O)C(=O)NCC(=O)O (stereo unspecified)	> 100	> 100 µM	> 100	> 100	> 100	> 100	> 31.6	> 100	–	–	–	–	–	–	–	–	–	–	–	–
O=C(O)/C(=C\c1ccc(O)cc1)c1cccc2ccccc12	> 100	> 100 µM	> 100	> 100	> 100	–	–	> 100	> 100	> 100 µM	–	–	–	–	–	–	–	–	–	–
COC1=CC(=O)C=C(OC)C1=O	34.4	96.6 µM	15.3	80.9	15.1	42.7	12.4	20.7	–	–	–	–	–	–	–	–	–	–	–	–
COC1=C(C)C(=O)C2=C(C1=O)C1C3CC4=C(C(=O)C(OC)=C(C)C4=O)C(CNC(=O)C(C)O)N3C(C#N)C(C2)N1C (stereo unspecified)	< 0.01	2 µM	0.146	10.5	2.18	2.25	< 0.01	0.022	< 0.01	0.0178 µM	–	–	–	–	–	–	–	–	–	–
